# Patent US20040209239A1, “Methods and compositions fir identifying episomal dna virus infection treatment” (priority 2001, published 2004)
# Tests used:
# [1] = tested on: episomal plasmids; assay: Transient replication of episomal plasmids; type: cell-based
# [2] = tested on: OriP; assay: OriP plasmid maintenance in cells; type: cell-based, Epstein-Barr virus; settings: for OriP maintenance, dependence on nonamer binding sites: D98/HR1 cells transfected with OriP wt or OriPΔa,b,c, 3 weeks after sorting, Southern analysis of Hirt lysates; for plasmid maintenance of OriP: FIG. 4 and FIG. 5C
# Text: A green fluorescent protein (GFP) reporter gene is inserted into the polylinker site of plasmid pREP10 (Invitrogen), which contains the EBV oriP and EBNA-1 under the control of its weak, naturally-occurring viral promoter. The GFP reporter gene allows for rapid flow cytometric (FACS) analysis to determine the percent of cells carrying the DNA vector. FACS is also used to cell sort, i.e., to obtain a homogeneous population of cells all expressing GFP and therefore carrying the vector.
# The recombinant episomal plasmid GFP-REP10 is transfected into recipient mammalian or avian host cells and cells are sorted after 48 hours to obtain a homogeneous population (100%) expressing the GFP label. Test compounds, individually or in combination, or controls are applied to samples of the culture medium to test for the effect on GFP positive cells. Cells treated with test compounds, or with positive and/or negative controls, are assayed for the rate of loss of GFP over several days to weeks. These rates of loss are compared for each test compound with the relevant controls to determine novel test compounds that enhance or decrease episomal maintenance in the cell.
# Confirmation of episomal DNA is determined at the experimental endpoint of between 3 to 5 weeks, using the HIRT extraction and Southern blotting procedure, described in e.g., Yates et al, 2000, J. Virol. 74, 4512-4522.
# In one study, D98/HR1 cells were transfected with OriP wt or OriPΔa,b,c, GFP-selected by FACS, and cultured in the presence of niacinamide (PARP inhibitor), hydroxyurea (PARP stimulator), or 3-AB (PARP inhibitor). OriP maintenance was assayed 3 weeks after sorting by Southern analysis of Hirt lysates.
# [3] = tested on: EBV genome; assay: Stability of the EBV genome in cells; type: cell-based, Epstein-Barr virus; settings: FIG. 5A and FIG. 5B
# [4] = tested on: histone H3; assay: OriP-associated histone modification by ChIP assay in Akata cells; type: cell-based
# Experimental: Akata cells were cultured without treatment, with H2O2, hydroxyurea (HU) or niacinamide as indicated above each lane. OriP-associated histone modification was measured by ChIP assay with antibodies specific for Flag, Acetylated H3, acetylated H4, or S10 phosphorylated H3.
# [5] = tested on: TRF1; assay: ChIP assay of TRF1 association with OriP in D98/HR1 cells; type: cell-based; settings: treated D98/HR1 cells
# Experimental: (§1) To determine if telomere associated proteins EBNA1, TRF2 and Tankyrase associate with EBV oriP episomes in naturally infected cell lines, the chromatin immunoprecipitation) (CHIP) assay was used with EBV positive RAJI Burkitt lymphoma cell lines that contain ˜5-25 copies of episomal EBV. Chromatin immunoprecipitation was performed as described in Galande, S. & Kohwi-Shigematsu, 1999 J. Biol. Chem. 274, 20521-20528.
# (§2) Briefly, asynchronous RAJI cells were cross-linked with formaldehyde, sonicated to generate chromatin DNA fragments of 400 bp average size, and then immunoprecipitation with various antibodies to FLAG-M2 (Sigma), EBNA1, Tankyrase, or TRF2. DNA fragments isolated from immunoprecipitation protein-DNA complexes (three-fold dilutions for each set of antibodies) were then amplified for 24 cycles by PCR with primer pairs specific for the DS region of EBV oriP (corresponding to EBV nucleotides 8586-9206, nucleotides 1-621 SEQ ID NO: 1), or for control EBV sequences surrounding the BRLF1 promoters (nucleotides 106,094-106,420, nucleotides 1-317 SEQ ID NO: 2), over 90 kb away from oriP and unlikely to share OriP binding proteins.
# (§3) EBNA1, hRap1,and TRF1 association with OriP were determined by ChIP assay in cells that were treated with hydroxyurea or niacinamide. […]
# [6] = tested on: EBNA1; assay: DS DNA affinity chromatography in the presence or absence of NAD; type: binding, Epstein-Barr virus; settings: 1 mM NAD
# Experimental: To identify cellular proteins that mediate EBNA1 functions at OriP, a stable HeLa cell derivative (SL1) was established expressing epitope tagged EBNA1 (HA-EBNA1) and episomal OriP. SL1 cells were generated by retroviral transformation of HeLa S3 cells with HA-EBNA1 lacking Gly-Ala repeats (Δ102-325). HeLa and SL1 cell nuclear extracts were prepared by the method of Dignam, J. D. et al, 1983 Nucl. Acids Res. 11, 1475-1489. Nuclear pellets were solubilized by sonication in RIPA buffer (1% Triton×100, 0.1% sodium deoxycholate, 140 mM NaCl, 50 mM Hepes (pH 7.5), 1 mM EDTA, 1 mM DTT, and protease inhibitors-1 mM PMSF, 1 mM benzamidine, 10 μg/ml aprotinin, 20 μg/ml leupeptine, 1 μg/ml pepstatin, 25 μg/ml TLCK and 50 μg/ml TPCK). Sonicated nuclear pellets were clarified by centrifugation at 39,000×g for 30 minutes. This solubilized nuclear pellets were combined with nuclear extract (1:1) made 6 mM MgCl2, and preincubated with 400 μg/ml sonicated herring sperm DNA for 30 minutes. Biotinylated PCR fragments were coupled to streptavidin conjugated magnetic bead (Dynal) and then incubated nuclear extracts for 45 minutes at 25° C. The bound material was washed 4 times in D150 buffer (20 mM HEPES, pH7.9, 20% glycerol, 0.2 mM EDTA, 150 mM KCl, 1 mM DTT, 1 mM PMSF) and then eluted with D1000 (same as above except 1000 mM KCl). […]
# [7] = tested on: EBNA1; assay: EBNA1 binding to DS in Akata cells; type: cell-based, Epstein-Barr virus; settings: preliminary results
# Experimental: (§4) EBNA1 and MCM3 binding to DS were assayed in Akata cells cultured with no treatment, with hydroxyurea, or with niacinamide. […] Future quantification of these preliminary results will be necessary to determine the significance of MCM3 and other MCM complex components interaction with OriP.
# [8] = tested on: MCM3; assay: MCM3 binding to DS in Akata cells; type: cell-based; settings: preliminary results
# Experimental: as §4
# [9] = tested on: hRap1; assay: ChIP assay of hRap1 association with OriP in D98/HR1 cells; type: cell-based, human; settings: treated D98/HR1 cells
# [10] = tested on: EBNA1; assay: ChIP assay of EBNA1 association with OriP in D98/HR1 cells; type: cell-based, Epstein-Barr virus; settings: treated D98/HR1 cells
# Experimental: as §1, §2, §3
Compound,transient replication of episomal plasmids [1],long term maintenance of episomal plasmids [2],"OriP maintenance, dependence on nonamer binding sites [2]",stability of the EBV genome in cells [3],OriP-associated S10 phosphorylation of histone H3 [4],TRF1 association with OriP [5],MCM3 binding to DS [8],plasmid maintenance of OriP [2],also measured
"NC(=O)c1cccc(N)c1 [3-AB, 3-aminobenzamide]",weakly inhibit transient replication,stabilize long term maintenance,enhanced plasmid maintenance was dependent upon the nonamer binding sites in OriP,enhanced the stability of the EBV genome,,,,,
"OO [H2O2, hydrogen peroxide]",,,,,inhibited H3 acetylation and S10 phosphorylation,TRF1 binding was reduced,,,OriP-associated histone H3 acetylation [4]: inhibited H3 acetylation
NC(=O)c1ccc[n+]([C@@H]2O[C@H](COP(=O)([O-])OP(=O)(O)OC[C@H]3O[C@@H](n4cnc5c(N)ncnc54)[C@H](O)[C@@H]3O)[C@@H](O)[C@H]2O)c1 [NAD],,,,,,,,,association of EBNA1 with DS [6]: strong inhibit the association of EBNA1
NC(=O)NO [hydroxyurea],,,,decreased the stability of the EBV genome,inhibited S10 phosphorylation of histone H3,reduced TRF1 association,decrease in EBNA1 and MCM3 association,decreased the maintenance of the OriP plasmid,EBNA1 binding to DS [7]: decrease in EBNA1 and MCM3 association; hRap1 association with OriP [9]: not EBNA1 or hRap1; EBNA1 association with OriP [10]: not EBNA1
NC(=O)c1cccnc1 [niacinamide],weakly inhibit transient replication,stabilize long term maintenance,enhanced plasmid maintenance was dependent upon the nonamer binding sites in OriP,enhanced stability of the EBV genome,,,increased the MCM3 binding relative to EBNA1,increased OriP maintenance,
